Data taken from patent publication US20250262230A1, “HMGB1 Inhibitors for Treatment of APOE4-related Tauopathies including Alzheimer’s Disease” (The J. David Gladstone Institutes, a testamentary trust …, priority 2022, published 2025).

Experiments:
PS19-fE4 primary neurons = assay: Recombinant protein treatment of primary neurons, APOE sandwich ELISA of cell lysates; format: cell-based, mouse; conditions: 10 μg/mL recombinant protein, 24 hours, day 14 in vitro
Protocol: (§1) Biochemically extracted mouse hippocampal tissue lysates were diluted in Milli-Q H2O to the appropriate concentration and were run according to the provided manufacturer protocols (human APOE (Abcam); mouse HMGB1 (Novus Biologicals). Reactions of samples were read on a SpectraMaX M5 spectrophotometer (Molecular Devices) and protein concentrations were determined after interpolating a standard curve and adjusting for dilutions.
(§2) Primary cultures of neurons were prepared from prenatal E20 pups of various genotypes. After collecting pup brains, the cortex plus hippocampus were isolated and placed in ice-cold dissociation media+kyneurenic acid media (DM/KY) (DM:Na2SO4 (81.8 mM); K2SO4 (30 mM); MgCl2 (5.8 mM), CaCl2) (0.25 mM); HEPES (1 mM); glucose (20 mM); phenol red (0.001%); NaOH (0.16 mM) in distilled H2O) (KY: kynurenic acid (10 mM); phenol red (0.0025%); HEPES (5 mM); MgCl2 (100 mM); NaOH (add dropwise until pH 7.4). The resulting DM/KY media was made by combining 90% DM with 10% KY media. The isolated tissue was finely minced and then submerged in pre-warmed Papain solution (1 mL per brain) for 13 minutes while gently inverting and then submerged in trypsin inhibitor solution for 5 minutes (5 mL for up to 10 brains) while gently inverting. The tissue pellet was washed with Optimem/Glucose solution (20 mM glucose, 1 mL per brain) while gently inverting. Then, fresh Optimem/Glucose solution was added and tissue was gently triturated until separated into single cells. After filtering the cells through a 40 um cell strainer, the dissociated cells were plated at 1×10^6 cells/well of a 12-well plate or 3×10^5 cells/well of a 24-well plate in Neurobasal medium supplemented with B27, 100 U/mL^−1 of penicillin G, 100 µg/mL^−1 of streptomycin, and 1% GlutaMAX (B27/Neurobasal). Every 3-4 days, half of the media was removed and replaced with fresh B27/Neurobasal media. In some experiments, primary neurons were treated with either a Dulbecco's PBS (dPBS) vehicle or a recombinant protein of interest (10 μg/mL for one well of a 12-well plate) for 24 hours at day 14 in vitro. […]
(§3) The inventors hypothesized that astrocytic APOE4 may regulate neuronal APOE4 expression by promoting the release of these factors that activate the neuronal ERK pathway, leading to increased neuronal APOE4 expression. […] The APOE protein levels were then quantitatively evaluated in the primary neuronal cell lysates by sandwich ELISA.
(§4) Experiments were also performed to determine whether HMGB1 is a potential modulatory factor of neuronal APOE4 expression. As such, primary neurons isolated from PS19-fE4/GFAP-Cre and PS19-fE4 mice were treated with 10 μg/mL of recombinant HMGB1 protein or a dPBS control and the APOE protein levels were quantitatively evaluated in cell lysates by sandwich ELISA.

[1] = tested on: PS19-fE4/GFAP-Cre primary neurons; assay: as above; format: cell-based, mouse; conditions: 10 μg/mL recombinant protein, 24 hours, day 14 in vitro
Protocol: as §1, §2, §3, §4

| Molecule | APOE protein levels in cell lysates vs dPBS control (PS19-fE4 primary neurons) | increase in APOE protein levels relative to the dPBS control [1] | APOE protein levels in cell lysates vs dPBS control [1] |
| --- | --- | --- | --- |
| DPP10: recombinant DPP10 protein used to treat primary neurons | no significant difference in APOE levels | 98% |  |
| HMGB1: recombinant HMGB1 protein used to treat primary neurons (protein, listed as Homo sapiens) MGKGDPKKPRGKMSSYAFFVQTCREEHKKKHPDASVNFSEFSKKCSERWKTMSAKEKGKFEDMAKADKARYEREMKTYIPPKGETKKKFKDPNAPKRPPSAFFLFCSEYRPKIKGEHPGLSIGDVAKKLGEMWNNTAADDKQPYEKKAAKLKEKYEKDIAAYRAKGKPDAAKKGVVKAEKSKKKKEEEEDEEDEEDEEEEEDEEDEDEEEDDDDE | A significant difference was not observed |  | A significant difference was not observed |
